Experimental data: ChEMBL document CHEMBL1129307, “5-(4-Chlorophenyl)-4-methyl-3-(1-(2-phenylethyl)piperidin-4-yl)isoxazole: a potent, selective antagonist at human cloned dopamine D4 receptors” (J Med Chem, 1996)

Columns and labels:
[1] = biological target: T1, D(4) dopamine receptor (Homo sapiens, UniProt P21917); test: biochemical
T1 sequence (P21917 whole entry): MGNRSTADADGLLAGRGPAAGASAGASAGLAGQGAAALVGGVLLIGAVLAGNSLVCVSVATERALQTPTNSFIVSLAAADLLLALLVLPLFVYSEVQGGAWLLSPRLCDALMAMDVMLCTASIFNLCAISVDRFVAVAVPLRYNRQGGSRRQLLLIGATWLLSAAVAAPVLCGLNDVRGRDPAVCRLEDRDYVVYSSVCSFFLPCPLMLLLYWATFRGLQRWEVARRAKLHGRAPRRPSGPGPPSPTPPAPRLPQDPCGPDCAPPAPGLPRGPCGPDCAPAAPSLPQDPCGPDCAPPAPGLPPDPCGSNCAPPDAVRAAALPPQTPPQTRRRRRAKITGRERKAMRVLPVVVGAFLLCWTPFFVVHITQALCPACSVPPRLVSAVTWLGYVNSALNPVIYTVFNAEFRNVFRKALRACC
Description: Displacement of [3H]spiperone from human Dopamine receptor D4 expressed in HEK293 cells

[2] = biological target: D(3) dopamine receptor (Homo sapiens, UniProt P35462); test: biochemical
Sequence of D(3) dopamine receptor (P35462 whole entry): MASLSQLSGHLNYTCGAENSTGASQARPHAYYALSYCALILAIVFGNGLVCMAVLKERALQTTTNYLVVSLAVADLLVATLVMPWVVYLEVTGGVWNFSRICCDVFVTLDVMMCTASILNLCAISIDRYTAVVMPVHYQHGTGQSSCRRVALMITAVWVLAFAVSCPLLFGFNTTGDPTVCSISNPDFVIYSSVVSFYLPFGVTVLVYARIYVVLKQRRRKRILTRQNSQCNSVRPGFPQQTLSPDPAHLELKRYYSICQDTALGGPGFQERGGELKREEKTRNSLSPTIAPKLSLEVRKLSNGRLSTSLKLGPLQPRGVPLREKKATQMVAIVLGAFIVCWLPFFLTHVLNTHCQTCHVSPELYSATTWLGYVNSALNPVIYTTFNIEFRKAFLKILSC
Description: Displacement of [3H]spiperone from human Dopamine receptor D3 expressed in CHO cells

| Compound | Ki [1] [nM] | Ki [2] [nM] |
| --- | --- | --- |
| Clc1ccc(-c2cc(C3CCN(CCc4ccccc4)CC3)[nH]n2)cc1 | 5.5 | > 4000 |
| Cc1c(C2CCN(CCc3ccccc3)CC2)n[nH]c1-c1ccc(Cl)cc1 | 1.2 | 1200 |
| Cc1c(-c2ccc(Cl)cc2)noc1C1CCN(CCc2ccccc2)CC1 | 2.5 | 480 |

More lines, now with the values ahead:

| Ki [1] [nM] | Ki [2] [nM] | Compound |
| --- | --- | --- |
| 3.6 | 81 | Clc1ccc(CN2CCC(c3cc(-c4ccc(Cl)cc4)no3)CC2)cc1 |
| 44 | 430 | Clc1ccc(CN2CCC(c3cc(-c4ccc(Cl)cc4)on3)CC2)cc1 |
| 61 | 820 | Clc1ccc(CN2CCC(c3cc(-c4ccc(Cl)cc4)[nH]n3)CC2)cc1 |
